Literature values in patent US9265822B2 (priority 2009, dated 2016).

Tested on: 2009 H1N1 swine flu virus

Row | SMILES | effectiveness against the 2009 "swine" flu
1 | NC12CC3CC(CC(C3)C1)C2 [amantadine] | not proven effect
2 | CCOC(=O)C1=C[C@@H](OC(CC)CC)[C@H](NC(C)=O)[C@@H](N)C1 [oseltamivir] | effective
3 | CC(N)C12CC3CC(CC(C3)C1)C2 (stereo not shown) [rimantadine] | not proven effect
4 | CC(=O)N[C@H]1[C@H]([C@H](O)[C@H](O)CO)OC(C(=O)O)=C[C@@H]1N=C(N)N [zanamivir] | effective
